Measurements taken from article PMC6496074, “The Evolution of Azole Resistance in Candida albicans Sterol 14α-Demethylase (CYP51) through Incremental Amino Acid Substitutions” (Antimicrobial Agents and Chemotherapy, 2019).
Values joined by “and” are separate entries in the source; they are usually repeats but may differ in a detail not shown here. Equal entries are not always repeated.

Experiments:
Experiment in all cases: CYP51 reconstitution assay
Type in all cases: biochemical
CaCYP51 F145L = biological target: T1, CaCYP51 F145L (Candida albicans, UniProt P10613, F145L)
T1 construct: made in house; host or cells: E. coli DH5α (pCWori+)
Description: (§1) Azole antifungal agents were added in 2.5 μl dimethyl sulfoxide, followed by 10 min of incubation at 37°C prior to assay initiation with 4 mM β-NADPH-Na4. The samples were then shaken for 15 min at 37°C. Sterol metabolites were recovered by extraction with ethyl acetate, followed by derivatization with 0.1 ml N,O-bis(trimethylsilyl)trifluoroacetamide (BSTFA)–trimethylchlorosilane (TMCS) (99:1) and 0.3 ml anhydrous pyridine (2 h at 80°C), prior to analysis by gas chromatography-mass spectrometry (GC-MS) ([52]). IC50 determinations were performed in duplicate.

CaCYP51 G450E = biological target: T2, CaCYP51 G450E (Candida albicans, UniProt P10613, G450E)
T2 construct: made in house; host or cells: E. coli DH5α (pCWori+)
Description: as §1

CaCYP51 V456I = biological target: T3, CaCYP51 V456I (Candida albicans, UniProt P10613, V456I)
T3 construct: made in house; host or cells: E. coli DH5α (pCWori+)
Description: as §1

CaCYP51 Y118A = biological target: T4, CaCYP51 Y118A (Candida albicans, UniProt P10613, Y118A); conditions: mean ± SD, duplicate
T4 construct: made in house; host or cells: E. coli DH5α (pCWori+)
Description: as §1

CaCYP51 Y132F = biological target: T5, CaCYP51 Y132F (Candida albicans, UniProt P10613, Y132F)
T5 construct: made in house; host or cells: E. coli DH5α (pCWori+)
Description: as §1

CaCYP51 D278N = biological target: T6, CaCYP51 D278N (Candida albicans, UniProt P10613, D278N)
T6 construct: made in house; host or cells: E. coli DH5α (pCWori+)
Description: as §1

CaCYP51 Wild type = biological target: T7, CaCYP51 Wild type (Candida albicans, UniProt P10613)
T7 construct: made in house; host or cells: E. coli DH5α (pCWori+)
Description: as §1

CaCYP51 Y257H = biological target: T8, CaCYP51 Y257H (Candida albicans, UniProt P10613, Y257H)
T8 construct: made in house; host or cells: E. coli DH5α (pCWori+)
Description: as §1

CaCYP51 I471T = biological target: T9, CaCYP51 I471T (Candida albicans, UniProt P10613, I471T)
T9 construct: made in house; host or cells: E. coli DH5α (pCWori+)
Description: as §1

CaCYP51 G307S = biological target: T10, CaCYP51 G307S (Candida albicans, UniProt P10613, G307S)
T10 construct: made in house; host or cells: E. coli DH5α (pCWori+)
Description: as §1

CaCYP51 S405F = biological target: T11, CaCYP51 S405F (Candida albicans, UniProt P10613, S405F)
T11 construct: made in house; host or cells: E. coli DH5α (pCWori+)
Description: as §1

CaCYP51 G448E = biological target: T12, CaCYP51 G448E (Candida albicans, UniProt P10613, G448E)
T12 construct: made in house; host or cells: E. coli DH5α (pCWori+)
Description: as §1

CaCYP51 V488I = biological target: T13, CaCYP51 V488I (Candida albicans, UniProt P10613, V488I)
T13 construct: made in house; host or cells: E. coli DH5α (pCWori+)
Description: as §1

CaCYP51 G307S+G450E = biological target: T14, CaCYP51 G307S+G450E (Candida albicans, UniProt P10613, G307S/G450E)
T14 construct: made in house; host or cells: E. coli DH5α (pCWori+)
Description: as §1

CaCYP51 F126V = biological target: T15, CaCYP51 F126V (Candida albicans, UniProt P10613, F126V)
T15 construct: made in house; host or cells: E. coli DH5α (pCWori+)
Description: as §1

CaCYP51 P230L = biological target: T16, CaCYP51 P230L (Candida albicans, UniProt P10613, P230L)
T16 construct: made in house; host or cells: E. coli DH5α (pCWori+)
Description: as §1

CaCYP51 K143R = biological target: T17, CaCYP51 K143R (Candida albicans, UniProt P10613, K143R)
T17 construct: made in house; host or cells: E. coli DH5α (pCWori+)
Description: as §1

CaCYP51 R467K = biological target: T18, CaCYP51 R467K (Candida albicans, UniProt P10613, R467K)
T18 construct: made in house; host or cells: E. coli DH5α (pCWori+)
Description: as §1

CaCYP51 Y132H+K143R = biological target: T19, CaCYP51 Y132H+K143R (Candida albicans, UniProt P10613, K143R/Y132H)
T19 construct: made in house; host or cells: E. coli DH5α (pCWori+)
Description: as §1

CaCYP51 G464S = biological target: T20, CaCYP51 G464S (Candida albicans, UniProt P10613, G464S)
T20 construct: made in house; host or cells: E. coli DH5α (pCWori+)
Description: as §1

CaCYP51 Y132H = biological target: T21, CaCYP51 Y132H (Candida albicans, UniProt P10613, Y132H)
T21 construct: made in house; host or cells: E. coli DH5α (pCWori+)
Description: as §1

CaCYP51 Q474K = biological target: T22, CaCYP51 Q474K (Candida albicans, UniProt P10613, Q474K)
T22 construct: made in house; host or cells: E. coli DH5α (pCWori+)
Description: as §1

CaCYP51 S279F = biological target: T23, CaCYP51 S279F (Candida albicans, UniProt P10613, S279F)
T23 construct: made in house; host or cells: E. coli DH5α (pCWori+)
Description: as §1

CaCYP51 V437I = biological target: T24, CaCYP51 V437I (Candida albicans, UniProt P10613, V437I)
T24 construct: made in house; host or cells: E. coli DH5α (pCWori+)
Description: as §1

CaCYP51 F449Y = biological target: T25, CaCYP51 F449Y (Candida albicans, UniProt P10613, F449Y)
T25 construct: made in house; host or cells: E. coli DH5α (pCWori+)
Description: as §1

[1] = 0.25 h, 4 μM triazole, % of activity without triazole, read-out: Residual CYP51 activity (%) ± SD

T19 sequence (P10613 whole entry, looked up, stated change not applied): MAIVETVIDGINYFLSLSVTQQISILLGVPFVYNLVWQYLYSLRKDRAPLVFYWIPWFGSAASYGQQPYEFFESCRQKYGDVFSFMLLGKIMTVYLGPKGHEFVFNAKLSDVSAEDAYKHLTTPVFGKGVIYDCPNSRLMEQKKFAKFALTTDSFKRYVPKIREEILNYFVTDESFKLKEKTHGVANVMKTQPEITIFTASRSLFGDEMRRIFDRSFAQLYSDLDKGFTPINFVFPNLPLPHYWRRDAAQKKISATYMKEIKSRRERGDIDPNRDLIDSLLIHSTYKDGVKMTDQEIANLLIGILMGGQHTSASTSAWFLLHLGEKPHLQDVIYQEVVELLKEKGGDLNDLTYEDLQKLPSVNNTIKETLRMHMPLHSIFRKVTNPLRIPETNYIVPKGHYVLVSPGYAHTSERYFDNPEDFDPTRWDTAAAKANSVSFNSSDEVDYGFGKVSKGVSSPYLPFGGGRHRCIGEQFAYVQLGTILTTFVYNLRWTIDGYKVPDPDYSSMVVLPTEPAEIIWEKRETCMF
T14 sequence (P10613 whole entry, looked up, stated change not applied): as above
T9 sequence (P10613 whole entry, looked up, stated change not applied): as above
T7 sequence (P10613 whole entry, looked up, natural form): as the sequence (P10613 whole entry, looked up, stated change not applied) above
T8 sequence (P10613 whole entry, looked up, stated change not applied): as above
T11 sequence (P10613 whole entry, looked up, stated change not applied): as above
T18 sequence (P10613 whole entry, looked up, stated change not applied): as above
T13 sequence (P10613 whole entry, looked up, stated change not applied): as above
T22 sequence (P10613 whole entry, looked up, stated change not applied): as above

In the case of OC(Cn1cncn1)(Cn1cncn1)c1ccc(F)cc1F [Fluconazole, fluconazole], the remaining activity at 4 µM (CaCYP51 F145L; [1]) is reported as 6.71 ± 0.15%, the IC50 (CaCYP51 F145L; mean ± SD, duplicate) is reported as 0.45 ± 0.083 µM and the remaining activity at 4 µM (CaCYP51 G450E; [1]) is reported as 18.9 ± 0.94%. It also gave an IC50 (CaCYP51 G450E; mean ± SD, duplicate) of 1.08 ± 0.247 µM, a remaining activity at 4 µM (CaCYP51 V456I; [1]) of 3.68 ± 0.95% and an IC50 (CaCYP51 V456I; mean ± SD, duplicate) of 0.483 ± 0.022 µM. The IC50 (CaCYP51 Y118A) was 0.194 ± 0.01 µM, the remaining activity at 4 µM (CaCYP51 Y132F; [1]) was 7.05 ± 0.27% and the IC50 (CaCYP51 Y132F; mean ± SD, duplicate) was 0.606 ± 0.066 µM. For the same compound, the remaining activity at 4 µM (CaCYP51 D278N; [1]) was 7.59 ± 0.58%, the IC50 (CaCYP51 D278N; mean ± SD, duplicate) was 0.838 ± 0.027 µM and the remaining activity at 4 µM (CaCYP51 Wild type; 0.25 h, read-out: Residual CYP51 activity (%) ± SD) was 0.11 ± 0.09%. It also gave an IC50 (CaCYP51 Wild type; IC50) of 0.384 ± 0.019 µM, a remaining activity at 4 µM (CaCYP51 Y257H; [1]) of 3.96 ± 0.18% and an IC50 (CaCYP51 Y257H; mean ± SD, duplicate) of 0.512 ± 0.047 µM. For the same compound, the remaining activity at 4 µM (CaCYP51 I471T; [1]) was 4.35 ± 0.33%, the IC50 (CaCYP51 I471T; mean ± SD, duplicate) was 0.6 ± 0.017 µM and the remaining activity at 4 µM (CaCYP51 G307S; [1]) was 0.95 ± 0.17%. The IC50 (CaCYP51 G307S; mean ± SD, duplicate) was 0.526 ± 0.211 µM, the remaining activity at 4 µM (CaCYP51 S405F; [1]) was 11.6 ± 1.41% and the IC50 (CaCYP51 S405F; mean ± SD, duplicate) was 0.82 ± 0.042 µM. It also gave a remaining activity at 4 µM (CaCYP51 G448E; [1]) of 10.5 ± 0.2%, an IC50 (CaCYP51 G448E; mean ± SD, duplicate) of 0.796 ± 0.087 µM and a remaining activity at 4 µM (CaCYP51 V488I; [1]) of 1.06 ± 0.04%. For the same compound, the IC50 (CaCYP51 V488I; mean ± SD, duplicate) was 0.52 ± 0.057 µM, the “fold increase in IC50 over wild-type enzyme” value (CaCYP51 G307S+G450E) was 13 fold and the remaining activity at 4 µM (CaCYP51 G307S+G450E; [1]) was 56.8 ± 2.3%. It also gave an IC50 (CaCYP51 G307S+G450E; mean ± SD, duplicate) of 4.98 ± 0.054 µM, a remaining activity at 4 µM (CaCYP51 F126V; [1]) of 0.09 ± 0.06% and an IC50 (CaCYP51 F126V; mean ± SD, duplicate) of 0.278 ± 0.027 µM. For the same compound, the remaining activity at 4 µM (CaCYP51 P230L; [1]) was 0.05 ± 0.03%, the IC50 (CaCYP51 P230L; mean ± SD, duplicate) was 0.334 ± 0.086 µM and the remaining activity at 4 µM (CaCYP51 K143R; [1]) was 28.1 ± 2.04%. For the same compound, the IC50 (CaCYP51 K143R; mean ± SD, duplicate) was 1.1 ± 0.313 µM, the remaining activity at 4 µM (CaCYP51 R467K; [1]) was 3.34 ± 0.61% and the IC50 (CaCYP51 R467K; mean ± SD, duplicate) was 0.476 ± 0.08 µM. The “fold increase in IC50 over wild-type enzyme” value (CaCYP51 Y132H+K143R) was 22 fold and 22.1 fold, the remaining activity at 4 µM (CaCYP51 Y132H+K143R; [1]) was 68.8 ± 5.68% and the IC50 (CaCYP51 Y132H+K143R; mean ± SD, duplicate) was 8.47 ± 1.27 µM. For the same compound, the remaining activity at 4 µM (CaCYP51 G464S; [1]) was 3.05 ± 0.17%, the IC50 (CaCYP51 G464S; mean ± SD, duplicate) was 0.455 ± 0.047 µM and the remaining activity at 4 µM (CaCYP51 Y132H; [1]) was 0.86 ± 0.07%. For the same compound, the IC50 (CaCYP51 Y132H; mean ± SD, duplicate) was 0.22 ± 0.013 µM, the remaining activity at 4 µM (CaCYP51 Q474K; [1]) was 0.71 ± 0.08% and the IC50 (CaCYP51 Q474K; mean ± SD, duplicate) was 0.358 ± 0.008 µM. It also gave a remaining activity at 4 µM (CaCYP51 S279F; [1]) of 18 ± 1.67%, an IC50 (CaCYP51 S279F; mean ± SD, duplicate) of 1.05 ± 0.325 µM and a remaining activity at 4 µM (CaCYP51 V437I; [1]) of 0.22 ± 0.06%. The IC50 (CaCYP51 V437I; mean ± SD, duplicate) was 0.281 ± 0.004 µM, the remaining activity at 4 µM (CaCYP51 F449Y; [1]) was 0.76 ± 0.08% and the IC50 (CaCYP51 F449Y; mean ± SD, duplicate) was 0.245 ± 0.028 µM.
